What was measured:
Type in all cases: cell-based, human
[1] = system: telomerase reverse transcriptase (TERT); experiment: Quantitative RT-PCR of TERT (immortalization) in salivary gland cells; conditions: salivary gland cells in Rock inhibitor-containing medium; FIG. 6B
Method: Primary cultured salivary gland cells were cultured in a medium containing a Rock inhibitor and analyzed for their proliferation by Western blotting of proliferating cell nuclear antigen (PCNA: Santa Cruz) and for their apoptosis by Western blotting of caspase-3 (CST). For analysis of their immortalization, the expression of telomerase reverse transcriptase (TERT) was analyzed by quantitative RT-PCR assay. Quantitative RT-PCR of TERT was conducted in the same manner as shown in (2.1) above. The primers used are as shown below. The universal probe used was #19.

fibroblasts = experiment: Cell culture of fibroblasts using a Rho kinase inhibitor (cell morphology); conditions: inhibitor-containing medium (10 μM); passage 7 with inhibitor vs passage 2 without; FIG. 13
Method: Odontoma cells, oral mucosal epithelial cells, fibroblasts, and cancer-associated fibroblasts (CAFs) (i) Patient-derived cells for use as a source material were taken in a required amount as described above. (ii) The cells were washed three times with phosphate-buffered physiological saline (PBS) (supplemented with 10 units/ml of penicillin and 100 μg/ml of streptomycin: Sigma-Aldrich). (iii) The cells were cut into small pieces with sterilized iris scissors and a surgical knife (No. 11). (iv) After addition of trypsin (TrypLE Select Enzyme, Gibco, Code No. A12177-01), the cells were shaken at 37° C. for 30 minutes. (v) The cells were mixed with Dulbecco's modified Eagle medium (DMEM: Sigma-Aldrich) (supplemented with 10% fetal bovine serum: Nichirei Bioscience Inc., Japan, 10 units/ml of penicillin and 100 μg/ml of streptomycin), and centrifugation (at 1000 rpm for 5 minutes) was repeated three times. (vi) The cells were mixed with DMEM (supplemented with 10% fetal bovine serum, 10 units/ml of penicillin, 100 μg/ml of streptomycin, 10 μM of the Rock kinase inhibitor and 0.3 μM of L-ascorbic acid 2-phosphate: Sigma-Aldrich) (DMEM+) and then seeded into collagen type I-coated cell culture dishes (IWAKI). (vii) The cells were washed with PBS once every three days to replace the above medium. (viii) The cultured cells were subcultured at 80% confluency. […]

[2] = system: vascular endothelial cells; experiment: Cell culture of vascular endothelial cells using a Rho kinase inhibitor (cell morphology); conditions: inhibitor-containing medium (10 μM, EGM-2MV); passage 8 with inhibitor vs passage 0 without; FIG. 15
Method: Vascular Endothelial Cells (i) Patient-derived cells for use as a source material were taken in a required amount as described above. (ii) The cells were washed three times with phosphate-buffered physiological saline (PBS) (supplemented with 10 units/ml of penicillin and 100 μg/ml of streptomycin: Sigma-Aldrich). (iii) The cells were cut into small pieces with sterilized iris scissors and a surgical knife (No. 11). (iv) The cells were added to collagenase (032-10534: Wako) and shaken at 37° C. for 60 minutes. (v) The cells were diluted with an equal volume of fetal bovine serum (Nichirei Bioscience Inc., Japan) and centrifuged (at 1000 rpm for 10 minutes), and then centrifuged (at 1000 rpm for 5 minutes) three times with PBS, followed by addition of MACS buffer and centrifugation (at 1000 rpm for 5 minutes). (vi) Magnetic beads (Dynabeads CD31 Endotherial cell, 11155D: Invitrogen) were used to separate the cells. (vii) The cells were mixed with EGM-2MV (Lonza) (supplemented with 20% fetal bovine serum, 10 units/ml of penicillin, 100 μg/ml of streptomycin, and 10 μM of the Rock kinase inhibitor) and then seeded into fibronectin-coated cell culture dishes (IWAKI). (viii) The cells were washed with PBS once every three days to replace the above medium. (ix) The cultured cells were subcultured at 80% confluency. […]

SMILES: CC(N)[C@H]1CC[C@H](C(=O)Nc2ccncc2)CC1 (stereo partly drawn) [Rock inhibitor, (R)-(+)-trans-N-(4-pyridyl)-4-(1-aminoethyl)-cyclohexanecarboxamide]
- TERT expression [1]: no difference was also observed
- cell morphology of fibroblasts on repeated subculture (fibroblasts): maintain their cell morphology even when repeatedly subcultured
- cell morphology of vascular endothelial cells on repeated subculture [2]: maintain their cell morphology even when repeatedly subcultured
